Patent US9834773B2, “Methods and means for metabolic engineering and improved product formation by micro-organisms” (Universiteit Leiden, priority 2006, dated 2017)

Target: DasR (Streptomyces coelicolor, UniProt Q9K492)
Assay: EMSA binding interference experiment: ability of compounds to interfere with binding of DasR to the nagB and crr promoters
Conditions: for effect on formation of the complex of DasR with the nagB promoter (EMSA): 10 nM fluorescent probe, 3 μM purified DasR, 500-fold excess of non-specific DNA, 50, 100, 150, and 200 mM compound; for effect on formation of the complex of DasR with the crr promoter region (EMSA): data not shown
Procedure: FIG. 12. […] EMSAs were performed with 10 nM fluorescent probe, 3 μM purified DasR, and 500-fold excess of non-specific DNA.
EMSAs were performed with fluorescent probes (10 nM) with an ALF express sequencer (Filee et al., 2001). Purified DasR (3 μM) and 1000-fold excess of non-specific DNA were used in the reaction mixture. Predicted cis-acting elements were taken from the promoter regions of actII-ORF4 (SCO5085; 5′-[…]-3′ (SEQ ID NO:530)), and redZ (SCO5881; 5′-[…]-3′ (SEQ ID NO:531)). Known cis-acting elements upstream of crr (SCO1390; […]-3′ (SEQ ID NO:532)), and crp (SCO3571; 5′-[…]-3′ (SEQ ID NO:533)) were used as positive and negative controls, respectively. The 16 nt dre sites are underlined.
A pivotal question is what is the effector molecule that modulates DasR? As shown in here, many of the targets for DasR relate to the generation (chitinolytic system), transport (PTS^GlcNAc), and metabolism (glycolysis via fructose 6-P) of N-acetylglucosamine. We therefore looked for the inducer among the intermediate molecules that gravitate around aminosugar metabolism. A binding interference experiment was set up where the ability of compounds to interfere with binding of dasR to the nagB and crr promoters was tested. […] The finding that glucosamine-6-P serves as an effector of DasR is explained by its central position at the metabolic crossroads between (GlcNAc)n extracellular degradation, N-acetylglucosamine transport and intracellular metabolism, lipid and nitrogen metabolism, glycolysis, and peptidoglycan synthesis (FIG. 13).

Sequence of DasR (Q9K492 whole entry): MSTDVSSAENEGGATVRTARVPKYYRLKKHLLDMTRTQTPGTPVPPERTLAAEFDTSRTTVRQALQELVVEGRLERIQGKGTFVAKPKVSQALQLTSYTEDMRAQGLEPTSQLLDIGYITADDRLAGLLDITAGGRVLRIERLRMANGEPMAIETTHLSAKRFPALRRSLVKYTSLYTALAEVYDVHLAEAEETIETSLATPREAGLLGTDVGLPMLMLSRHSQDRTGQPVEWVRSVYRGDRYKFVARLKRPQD

N[C@@H](CCC(=O)O)C(=O)O [glutamate]
effect on formation of the complex of DasR with the nagB promoter (EMSA): it was the only of the compounds tested that prevented the formation of a complex
effect on formation of the complex of DasR with the crr promoter region (EMSA): it was the only of the compounds tested that prevented the formation of a complex

NC(=O)CC[C@H](N)C(=O)O [glutamine]
effect on formation of the complex of DasR with the nagB promoter (EMSA): it was the only of the compounds tested that prevented the formation of a complex
effect on formation of the complex of DasR with the crr promoter region (EMSA): it was the only of the compounds tested that prevented the formation of a complex

O=C(CO)[C@@H](O)[C@H](O)[C@H](O)COP(=O)(O)O [fructose 6-P]
effect on formation of the complex of DasR with the nagB promoter (EMSA): it was the only of the compounds tested that prevented the formation of a complex
effect on formation of the complex of DasR with the crr promoter region (EMSA): it was the only of the compounds tested that prevented the formation of a complex

CC(=O)N[C@H]1C(O)O[C@H](COP(=O)(O)O)[C@@H](O)[C@@H]1O (stereo partly shown) [N-acetylglucosamine-6-P]
effect on formation of the complex of DasR with the nagB promoter (EMSA): it was the only of the compounds tested that prevented the formation of a complex
effect on formation of the complex of DasR with the crr promoter region (EMSA): it was the only of the compounds tested that prevented the formation of a complex

N[C@H]1C(O)O[C@H](COP(=O)(O)O)[C@@H](O)[C@@H]1O (stereo partly shown) [glucosamine-6-P, glucosamine-6-phosphate]
effect on formation of the complex of DasR with the nagB promoter (EMSA): prevented the formation of a complex
effect on formation of the complex of DasR with the nagB promoter (EMSA) (listed as GlcN-6-P): release of DasR from the dre site
effect on formation of the complex of DasR with the crr promoter region (EMSA): prevented the formation of a complex

CC(=O)SCCNC(=O)CCNC(=O)[C@H](O)C(C)(C)COP(=O)(O)OP(=O)(O)OC[C@H]1O[C@@H](n2cnc3c(N)ncnc32)[C@H](O)[C@@H]1OP(=O)(O)O [acetyl-CoA]
effect on formation of the complex of DasR with the nagB promoter (EMSA): it was the only of the compounds tested that prevented the formation of a complex
effect on formation of the complex of DasR with the crr promoter region (EMSA): it was the only of the compounds tested that prevented the formation of a complex
